# Tests used:
# [1] = Haemolysis assay; assay type: cell-based; conditions: human red blood cells (erythrocyte suspension), 1 h at 37 ℃, read-out: Haemolysis rate; for hemolysis at 1 h, 12.5 μg/mL: 12.50 μg/mL
# Experimental: The surfactant may be absorbed and penetrate to the cell membrane, where it makes osmotic phenomena by altering the permeability of membrane, which in turn causes the cellular lysis. Haemolysis assay gives quantitative estimation about haemoglobin release when red blood cells are treated with QASs. Haemolytic assay of QASs at different concentration was carried out in Table 4. […] For 5a-b, 6a-b, 10a-c, 13a-b, and 16a-d, their safe concentration can more than 100 μg/mL. Compared with BZK and CA, all QASs were safe to be used when they circulated into the blood in low concentration. […]
# The human blood from healthy individual was collected in a tube containing heparin, and the blood was centrifuged at 1500 rpm for 3 min. The […] (Erythrocyte) was collected and plasma was discarded and further washed five times with sterile normal saline solution. Then the cells were diluted to 0.2% of their volume with normal saline solution. 2 mL of the diluted red blood cells suspension was mixed with (a) 2 mL of normal salinesolution as a negative control; (b) 2 mL of distilled water as a positive control; (c) 2 mL of QAS solution which were dispersed into normal saline solution at the different concentrations ranging from 3.125 to 400 μg/mL. Then the mixtures were shaken well and incubated for 1 h at 37 ℃. Finally, the mixtures were centrifuged for 5min at 2000 r/min and the absorbances of supernatant at 540 nm was measured by a microplate reader (Multiskan MK3-Thermo Labsystems, USA). The hemolysis ratio was calculated as follows: The hemolysis ratio(%) = (OD Sample−OD Negative)/(OD Positive −OD Negative) ×100%. The hemolysis evaluation of QASs was performed in triplicate and results were expressed as the mean ± SD.
# [2] = tested on: S. aureus; assay: MIC, broth tube dilution; assay type: cell-based; conditions: 12 h, 37℃; for MIC: Staphylococcus aureus, read-out: Minimal inhibitory concentration (MIC)
# Description: (§1) In this paper, antimicrobial activities of 24 QASs were detected by quantitative tests. […] Benzalkonium chloride (BZK) and chlorhexidine acetate (CA) was selected as positive controls. Representative compound POT-C12QAS (2) which synthesised and evaluated in previous work was also taken as a reference compound in MIC, MBC and cytotoxicity tests. […]
# (§2) agriculture were used as target pathogens in this study, including three strains of Gram-positive bacteria (S. Aureus, α-H-tococcus, β-H-tococcus), three strains of Gram-negative bacteria (E. coli, P. aeruginosa, Proteus vulgaris) and four strains of fungi (Canidia albicans, Cytospora mandshurica, Physalospora piricola, Aspergillus niger). The antimicrobial tests were assayed, according to standard CLSI methods for antimicrobial dilution susceptibility tests to measure the minimum inhibitory concentration (MIC) and minimum bactericidal concentration (MBC)2.
# (§3) A broth tube dilution method was followed to determine the MIC values for all the screened compounds against the micro-organisms, and for comparison benzalkonium chloride (BZK) and chlorhexidine acetate (CA) was used as a reference. For sample preparation, each of the test compounds and reference were dissolved in DMSO or sterile water at a concentration of 1600 μg/mL, and further dilutions of the compounds and reference in culture medium MHB (Muller-Hinton Broth) were prepared at the required quantities of 400, 200, 100 etc., down to 0.39 μg/mL. Bacterial strains and fungal strains were maintained on MHA (Muller-Hinton Agar) medium at 37℃ or 28 ℃ for 12 h or 72h, respectively. The microbial inocula were prepared by suspension in 10 mL of culture medium for colonies from culture on MHA. The cell density of each inoculum was adjusted in culture medium of a 0.5 McFarland standard (1-2×10^8 CFU/mL). The final amount applied was 10^5 CFU/mL for bacteria and fungi. The microbial inocula were added to the twofold diluted samples. One growth control tube was prepared […] the addition of the compound and one blank tube was prepared without the addition of the microorganism. MIC values were read after incubation at 37℃ or 28 ℃ for bacterial and fungal strains, respectively. After 12 h or 72h, the last tube with no growth of micro-organisms was recorded to represent the MIC value expressed in μg/ml. All experiments were carried out three times. […]
# [3] = tested on: Aspergillus niger; assay: MIC, broth tube dilution; assay type: cell-based; conditions: 28 ℃; for MIC: 72 h, read-out: Minimal inhibitory concentration (MIC)
# Description: as §1, §2, §3
# [4] = tested on: Physalospora piricola; assay: MIC, broth tube dilution; assay type: cell-based; conditions: 28 ℃; for MIC: 72 h, read-out: Minimal inhibitory concentration (MIC)
# Description: as §1, §2, §3
# [5] = tested on: E. coli; assay: MIC, broth tube dilution; assay type: cell-based; conditions: 12 h, 37℃; for MIC: Escherichia coli, read-out: Minimal inhibitory concentration (MIC)
# Description: as §1, §2, §3
# [6] = tested on: Cytospora mandshurica; assay: MIC, broth tube dilution; assay type: cell-based; conditions: 28 ℃; for MIC: Cytospora, 72 h, read-out: Minimal inhibitory concentration (MIC)
# Description: as §1, §2, §3
# [7] = tested on: Proteus vulgaris; assay: MIC, broth tube dilution; assay type: cell-based; conditions: 12 h, 37℃; for MIC: read-out: Minimal inhibitory concentration (MIC)
# Description: as §1, §2, §3
# [8] = tested on: Canidia albicans; assay: MIC, broth tube dilution; assay type: cell-based; conditions: 28 ℃; for MIC: 72 h, read-out: Minimal inhibitory concentration (MIC)
# Description: as §1, §2, §3
# [9] = tested on: P. aeruginosa; assay: MIC, broth tube dilution; assay type: cell-based; conditions: 12 h, 37℃; for MIC: Pseudomonas aeruginosa, read-out: Minimal inhibitory concentration (MIC)
# Description: as §1, §2, §3
# [10] = tested on: α-H-tococcus; assay: MIC, broth tube dilution; assay type: cell-based; conditions: 12 h, 37℃; for MIC: read-out: Minimal inhibitory concentration (MIC)
# Description: as §1, §2, §3
# [11] = tested on: β-H-tococcus; assay: MIC, broth tube dilution; assay type: cell-based; conditions: 12 h, 37℃; for MIC: read-out: Minimal inhibitory concentration (MIC)
# Description: as §1, §2, §3
# [12] = Cytotoxicity, MTT assay; assay type: cell-based, human; conditions: human, MTT, 24 h
# Experimental: These six series of antimicrobial compounds may be applied to daily or clinical disinfectants for unbroken skin and trauma, or agricultural fungicides alternatively. Thus, their cytotoxicity for skin or body tissues are crucial. In this study, the cytotoxicity of target compounds was evaluated for human immortalised epidermal (HaCat) and human normal liver (LO2) cell line using MTT assay. […] The IC50 values of 5a, 6a, 10a, 16a, 16 b were about more than 50 μg/mL for LO2 and HaCat.
# Cytotoxicity Testing with MTT Method
# Human immortalized epidermal cells (HaCat) line were cultured in Dulbecco’s modified Eagle’s medium containing 10% fetal bovine serum, 1% penicillin, and 1% streptomycin at 37°C in a 5% CO2/95% air incubator MCO-15AC (SANYO). Human normal liver cells (LO2) line were cultured in Roswell Park Memorial Institute medium containing 10% fetal bovine serum, 1% penicillin, and 1% streptomycin at 37°C in a 5% CO2/95% air incubator MCO-15AC (SANYO). HaCat or LO2 cells in 96-well plate were adjusted to 1.0 × 10^5 cells mL-1 and cells were passed and cell supernatant was pour out before plating on glass slide at 37°C, 5% CO2 for 24 h. Cells were pretreated with 100 μL QAS for 24 h and cell supernatant with QAS was pour out and washed with PBS buffer system. Then, the cells were treated with the MTT solution (MTT, 3-(4,5-dimethythiazol-2-yl)-2,5-diphenyl-tetrazolium bromide, 20 μL, 5 mg/mL) for 4 h. The dark blue formazan crystal formed in the intact cells was solubilized with dimethyl sulfoxide, and absorbance at 570 nm was measured with a microplate reader (Multiskan MK3-Thermo Labsystems, USA). The results were expressed as percentage of the control value from the normal cells without treatments of QAS. […]
# [13] = LO2 human normal liver cells, LO2 cells
Compound,"hemolysis at 1 h, 6.25 μg/mL [1] [%]","hemolysis at 1 h, 12.5 μg/mL [1] [%]","hemolysis at 1 h, 25 μg/mL [1] [%]","hemolysis at 1 h, 50 μg/mL [1] [%]","hemolysis at 1 h, 100 μg/mL [1] [%]","hemolysis at 1 h, 200 μg/mL [1] [%]","hemolysis at 1 h, 400 μg/mL [1] [%]",MIC [2] [µg/mL],MIC [3] [µg/mL],MIC [4] [µg/mL],MIC [5] [µg/mL],MIC [6] [µg/mL],MIC [7] [µg/mL],MIC [8] [µg/mL],MIC [9] [µg/mL],MIC [10] [µg/mL],MIC [11] [µg/mL],"IC50 at 24 h [12, 13] [µg/mL]",IC50 at 24 h ([12]; HaCat cells) [µg/mL],further results
C[N+](CCO)(CCO)CCCCCCCCCCSc1nnc(-c2ccc(C(F)(F)F)cc2)o1.[Br-] [Compound 6c],0.57 ± 0.15,0.42 ± 0.13,0.67 ± 0.13,3.56 ± 1.32,35.8 ± 5.1,82.5 ± 6.12,89.4 ± 4.35,25,12.5,3.12,25,12.5,25,25,50,12.5,6.25,19.6 ± 1.62,,"IC50 at 24 h ([12]; HaCat human immortalised epidermal cells, HaCat cells): 12.1 ± 1.57 µg/mL"
C[N+](CCO)(CCO)CCCCCCCCCCSc1nnc(-c2ccc(F)cc2)o1 [Compound 5c],0.43 ± 0.16,0.75 ± 0.19,2.31 ± 0.67,4.89 ± 0.53,33.1 ± 4.87,52.3 ± 6.34,67.2 ± 5.89,25,25,3.12,25,12.5,50,25,50,12.5,6.25,23.9 ± 1.68,19.4 ± 1.23,
C[N+](CCO)(CCO)CCCCCCCCCCCCSc1nc2ccccc2s1 [Compound 13d],0.56 ± 0.13,1.5 ± 0.72,3.98 ± 1.03,11.2 ± 2.86,48.6 ± 3.54,65.2 ± 3.91,83.7 ± 4.12,~6.25,~3.12,~3.12,~25,~1.56,~25,~6.25,~25,~12.5,~1.56,8.96 ± 0.46,6.02 ± 0.35,
"[H]/N=C(\N/C(=N/[H])NCCCCCCNC(=N)NC(=N)Nc1ccc(Cl)cc1)Nc1ccc(Cl)cc1 [CA, chlorhexidine acetate, reference compound]",0.86 ± 0.28,2.51 ± 0.87,5.29 ± 1.22,37 ± 3.78,62.2 ± 3.53,86 ± 3.82,95.7 ± 3.54,3.12,3.12,1.56,6.25,6.25,12.5,12.5,25,6.25,1.56,,,
"Benzalkonium chloride [BZK, reference compound]",,,,,,,,,,,,,,,,,,,,Minimal inhibitory concentration (MIC) [2]: 3.125 µg/mL; Minimal inhibitory concentration (MIC) ([3]; 72h): 3.125 µg/mL; Minimal inhibitory concentration (MIC) ([4]; 72h): 3.125 µg/mL; Minimal inhibitory concentration (MIC) [5]: 25 µg/mL; Minimal inhibitory concentration (MIC) ([6]; 72h): 6.25 µg/mL; Minimal inhibitory concentration (MIC) [7]: 25 µg/mL; Minimal inhibitory concentration (MIC) ([8]; 72h): 12.5 µg/mL; Minimal inhibitory concentration (MIC) [9]: 25 µg/mL; Minimal inhibitory concentration (MIC) [10]: 3.125 µg/mL; Minimal inhibitory concentration (MIC) [11]: 1.56 µg/mL
